Where two headings read alike, the source gives them in different places.
What was measured:
[1] = system: scratching action induced by Compound 48/80; assay: Anti-pruritic activity test by application (Compound 48/80 scratching); assay type: in vivo, mouse (Crj:CD-1 (ICR)); conditions: Mus musculus, topical, read-out: Itching inhibition ratio % (Concentration %)
Experimental: 1) Preparation of the compound and the reagent: The compound being tested was dissolved in acetone (SIGMA). Compound 48/80 (SIGMA) was dissolved in physiological saline (m by Otsuka Pharmaceutical Co., Ltd.) so as to be 60 μg/mL.
2) Animals: Female Crj: CD-1 (ICR) mice of 6 to 10 age in week (Japan Charles Liver) were used as laboratory animals. The animals were fed in the barrier breeding room where […] in room temperature, 30 to 70% in humidity, and the light and shade condition existed every 12 hours and feed (CE-2: Japan Crea) and the drinking water were freely taken. The hair of dorsa (from the cervical region of the back to the center of the back) of the animals were cut with a hair clipper two days or more before the anti-pruritic activity is evaluated, those with no wound, rubefaction, and thickening of the skin on the dehaired part were chosen and supplied to the experiment on the day of the evaluation. 3) Evaluation procedures: The acetone solution of the compound being tested was applied by 50 μL on the dehaired parts of the mice with a pipeter. On the mice of the control group, 50 μL of acetone was applied. The 15 minutes later, 50 μL (corresponding to 3 μg) of Compound 48/80 solution was injected intradermally in the compound applied parts with the use of a injector (Terumo Corporation), the mice were individually put in five observation cages made of acrylate resin at once, and the scratching action (action of scratching the injection part by the hind leg) frequency during 30 minutes was measured. The evaluation was carried out in one group of 5 to 7 mice. 4) Data processing: The experiment results were shown by the mean values. The test of the significant difference of the compound applying group to the control group was conducted with Welch's t-test, and p<0.05 was assumed to be significant.

CB2 receptor [2] = molecular target: T1, CB2 receptor (Homo sapiens, UniProt P34972); assay: Human cannabinoid receptor bonding inhibition test ([3H]CP55940), CB2; assay type: binding; design: expressed in transfected cells; membrane fraction
T1 sequence (P34972 whole entry): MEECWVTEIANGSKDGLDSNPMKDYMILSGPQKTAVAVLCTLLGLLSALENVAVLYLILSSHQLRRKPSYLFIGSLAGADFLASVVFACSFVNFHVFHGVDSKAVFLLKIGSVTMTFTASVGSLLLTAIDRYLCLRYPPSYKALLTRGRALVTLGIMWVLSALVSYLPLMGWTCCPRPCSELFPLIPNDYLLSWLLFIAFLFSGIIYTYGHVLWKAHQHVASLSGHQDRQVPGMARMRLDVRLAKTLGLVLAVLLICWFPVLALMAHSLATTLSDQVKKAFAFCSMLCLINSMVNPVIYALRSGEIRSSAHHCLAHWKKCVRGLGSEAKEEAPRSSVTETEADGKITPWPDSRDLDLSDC

CB1 receptor [3] = molecular target: T2, CB1 receptor (Homo sapiens, UniProt P21554); assay: Human cannabinoid receptor bonding inhibition test ([3H]CP55940), CB1; assay type: binding; design: expressed in transfected cells; membrane fraction
T2 sequence (P21554 whole entry): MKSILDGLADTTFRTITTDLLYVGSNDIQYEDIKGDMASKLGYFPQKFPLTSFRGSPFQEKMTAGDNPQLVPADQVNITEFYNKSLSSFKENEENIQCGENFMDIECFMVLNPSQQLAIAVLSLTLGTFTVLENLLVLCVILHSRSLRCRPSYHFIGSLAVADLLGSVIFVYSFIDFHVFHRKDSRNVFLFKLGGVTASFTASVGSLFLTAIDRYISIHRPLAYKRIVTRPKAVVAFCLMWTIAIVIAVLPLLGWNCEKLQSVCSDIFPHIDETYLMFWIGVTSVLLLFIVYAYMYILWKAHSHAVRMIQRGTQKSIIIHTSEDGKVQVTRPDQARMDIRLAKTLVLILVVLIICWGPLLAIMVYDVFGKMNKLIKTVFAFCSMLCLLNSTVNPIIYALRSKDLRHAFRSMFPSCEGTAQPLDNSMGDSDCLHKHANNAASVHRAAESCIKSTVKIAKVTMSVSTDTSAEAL

CB1 receptor [4] = molecular target: T2, CB1 receptor; assay: cAMP formation inhibition experiment through a cannabinoid receptor (forskolin stimulation), CB1; assay type: cell-based; design: expressed in transfected cells; host or cells: CHO cells
Experimental: A compound being tested was added in the CHO cell which had mad human CB1 or CB2 receptor reveal and incubated for 15 minutes, and then forskolin (the final concentration 4 μM, and manufactured by SIGMA Corp.) was added and the mixture was incubated for 20 minutes. After the reaction had been stopped by adding 1M hydrochloric acid, the amount of cAMP in the supernatant was measured with the use of Cyclic AMP kit (made by the CIS Diagnostic Corp.).

CB2 receptor [5] = molecular target: T1, CB2 receptor; assay: cAMP formation inhibition experiment through a cannabinoid receptor (forskolin stimulation), CB2; assay type: cell-based; design: expressed in transfected cells; host or cells: CHO cells
[6] = read-out: Agonist activity (nM) CB1
[7] = [3H]CP55940 0.5 nM, membrane preparation of CHO cells expressing CB1, Ki calculated from IC50, read-out: Binding activity (nM) CB1
[8] = [3H]CP55940 0.5 nM, membrane preparation of CHO cells expressing CB2, Ki calculated from IC50, read-out: Binding activity (nM) CB2
[9] = read-out: Agonist activity (nM) CB2
[10] = read-out: Binding activity (nM) CB1

SMILES	Ki (CB2 receptor [2])	Ki (CB1 receptor [3])	IC50 (CB1 receptor [4]; [6])	Ki (CB1 receptor [3]; [7])	IC50 (CB2 receptor [5])	IC50 (CB1 receptor [4])	also measured
CCCCn1c2c(cc(C(=O)NCc3ccccc3)c1=O)CCCCCC2 [Compound 4-101, reference compound]	1.9 nM	–	–	–	–	–	inhibition in vivo at 5 % [1]: 7.5%
CCCCn1c2c(cc(C(=O)NC3CCCCC3)c1=O)CCCCCC2 [Compound 10-035, reference compound]	0.2 nM	19 nM	–	–	–	–	inhibition in vivo at 5 % [1]: 22%
CSC(=O)C(C)(C)NC(=O)c1cc2c(n(CC3CCCCC3)c1=O)CCCCCC2 [Compound I-001, 2-[(1-cyclohexylmethyl-2-oxo-1,2,5,6,7,8,9,10-octahydro-cycloocta[b]pyridine-3-carbonyl)-amino]-2-methyl-thiopropionic acid S-methyl ester]	< 2 nM	< 2 nM	< 2 nM	–	–	–	inhibition in vivo at 0.5 % [1]: 53%
CN(CCO)C(=O)C(C)(C)NC(=O)c1cc2c(n(CC3CCCCC3)c1=O)CCCCCC2 [Compound I-019, 1-cyclohexylmethyl-2-oxo-1,2,5,6,7,8,9,10-octahydro-cycloocta[b]pyridine-3-carboxylic acid {1-[(2-hydroxyethyl)-methyl-carbamoyl]-1-methyl-ethyl}-amide]	< 2 nM	–	8.1 nM	2.9 nM	–	–	inhibition in vivo at 1 % [1]: 74%
CCCCn1c2c(cc(C(=O)N[C@H](C(=O)OC)C(C)C)c1=O)CCCCCC2 [Compound I-111]	< 2 nM	3.5 nM	< 2 nM	–	–	–	inhibition in vivo at 0.1 % [1]: 55%
CCCCn1c2c(cc(C(=O)NC3(C(=O)OC)CCCCC3)c1=O)CCCCCC2 [Compound I-124]	< 2 nM	3.6 nM	< 2 nM	–	–	–	inhibition in vivo at 0.5 % [1]: 49%
CCCc1c(CC)cc(C(=O)N[C@H](C(=O)OC)C(C)C)c(=O)n1CC1CCCCC1 [Compound I-133]	< 2 nM	5 nM	4 nM	–	–	–	inhibition in vivo at 0.5 % [1]: 56%
CCc1c(C)cc(C(=O)N[C@H](C(=O)OC)C(C)C)c(=O)n1CC1CCCCC1 [Compound I-134]	< 2 nM	< 2 nM	< 2 nM	–	–	–	inhibition in vivo at 0.5 % [1]: 91%
CCc1c(C)cc(C(=O)N[C@H](C(=O)OC)C(C)C)c(=O)n1Cc1ccc(F)cc1 [Compound I-196]	< 2 nM	< 2 nM	< 2 nM	–	–	–	inhibition in vivo at 0.5 % [1]: 47%
CCCCn1c2c(cc(C(=O)N[C@H](C(=O)OC)C(C)(C)C)c1=O)CCCCCC2 [Compound I-203]	< 2 nM	< 2 nM	< 2 nM	–	–	–	inhibition in vivo at 0.5 % [1]: 86%
CCCCn1c(CCC)c(CC)cc(C(=O)N[C@H](C(=O)OC)C(C)(C)C)c1=O [Compound I-211]	< 2 nM	2.4 nM	< 2 nM	–	–	–	inhibition in vivo at 1.5 % [1]: 70%
CCc1c(C)cc(C(=O)N[C@H](C(=O)OC)C(C)(C)C)c(=O)n1CC1CCCCC1 [Compound I-252]	< 2 nM	< 2 nM	< 2 nM	–	–	–	inhibition in vivo at 1.5 % [1]: 96%
CCc1c(C)cc(C(=O)NC2(C(=O)O)CCCCC2)c(=O)n1Cc1ccc(F)cc1 [Compound I-493]	–	> 2000 nM	–	–	–	–	Ki (CB2 receptor [2]; [8]): 36 nM; IC50 (CB2 receptor [5]; inhibition of forskolin (4 μM)-stimulated cAMP formation, CHO cells expressing human CB2, read-out: Agonist activity (nM) CB2): 24 nM
O=C(O)C1=C(NC(=O)c2cc3c(n(CC4CCCCC4)c2=O)CCCCCC3)CCCC1 [Compound X-126]	31 nM	873 nM	131 nM	–	35 nM	–	–
CCCCn1c2c(cc(C(=O)NC(CC)(CC)CC(=O)O)c1=O)CCCCCC2 [Compound X-128]	10 nM	–	–	608 nM	3 nM	152 nM	–
CCc1c(C)cc(C(=O)Nc2nc(CC(=O)O)ns2)c(=O)n1CC1CCCCC1 [Compound X-133]	5.5 nM	–	–	> 2000 nM	< 2 nM	> 2000 nM	–
CCCCn1c2c(cc(C(=O)N[C@H](CC(=O)O)CC(C)C)c1=O)CCCCCC2 [Compound X-138]	42 nM	–	–	> 2000 nM	30 nM	> 2000 nM	–

SMILES	Ki (CB2 receptor [2])	Ki (CB1 receptor [3])	IC50 (CB1 receptor [4]; [6])	Ki (CB1 receptor [3]; [7])	IC50 (CB2 receptor [5])	IC50 (CB1 receptor [4])	also measured
CCCCn1c2c(cc(C(=O)NC3(CC(=O)O)CCCCC3)c1=O)CCCCCC2 [Compound X-157]	3.4 nM	–	–	270 nM	< 2 nM	268 nM	–
CCCCn1c(CCC)c(CC)cc(C(=O)NC2(CC(=O)O)CCCCC2)c1=O [Compound X-174]	8.9 nM	–	–	> 2000 nM	9.8 nM	> 2000 nM	–
CCCCn1c(CCC)c(CC)cc(C(=O)NC(CC)(CC)CC(=O)O)c1=O [Compound X-196]	31 nM	–	–	> 2000 nM	45 nM	> 2000 nM	–
CCc1c(C)cc(C(=O)NCC2(CC(=O)O)CCCCC2)c(=O)n1Cc1ccc(F)cc1 [Compound X-197]	41 nM	1260 nM	708 nM	–	7.2 nM	–	–
CCCCn1c2c(cc(C(=O)NC(CCC(=O)O)CC(C)C)c1=O)CCCCCC2 (stereo not drawn) [Compound X-202]	46 nM	–	–	1180 nM	81 nM	> 2000 nM	–
CCc1c(C)cc(C(=O)Nc2nc(CC(=O)O)cs2)c(=O)n1Cc1ccc(F)cc1 [Compound X-222]	43 nM	–	–	1620 nM	57 nM	> 2000 nM	–
CCc1c(C)cc(C(=O)NC2(C(=O)O)CCCCCCCCC2)c(=O)n1Cc1ccc(F)cc1 [Compound X-231]	38 nM	–	–	> 2000 nM	35 nM	> 2000 nM	–
CCCCn1c2c(cc(C(=O)NC3(C(=O)O)CCCCCCCCC3)c1=O)CCCCCC2 [Compound X-232]	15 nM	–	–	> 2000 nM	29 nM	> 2000 nM	–
CCCCn1c(CCC)c(CC)cc(C(=O)NC2(CC(=O)O)CCCC2)c1=O [Compound X-233]	24 nM	–	–	> 2000 nM	15 nM	> 2000 nM	–
CCc1c(C)cc(C(=O)NC2(CC(=O)O)CCCC2)c(=O)n1Cc1ccc(F)cc1 [Compound X-234]	4 nM	–	–	482 nM	6.1 nM	375 nM	–
CCCCn1c2c(cc(C(=O)NC3(CC(=O)O)CCCC3)c1=O)CCCCCC2 [Compound X-235]	3.7 nM	950 nM	270 nM	–	4.7 nM	–	–
CCc1c(C)cc(C(=O)NC2(C(=O)O)CCCCCCC2)c(=O)n1Cc1ccc(F)cc1 [Compound X-239]	10 nM	–	–	1420 nM	3.6 nM	> 2000 nM	–
O=C(NC1(C(=O)O)CCCCCCC1)c1cc2c(n(CC3CCCCC3)c1=O)CCCCCC2 [Compound X-240]	–	–	–	793 nM	< 2 nM	–	IC50 (CB1 receptor [4]; inhibition of forskolin (4 μM)-stimulated cAMP formation, CHO cells expressing human CB1, read-out: Agonist activity (nM) CB1): 468 nM; Ki (CB2 receptor [2]; [8]): 6.2 nM
CCCCn1c(CCC)c(CC)cc(C(=O)NC2(C(=O)O)CCCCCC2)c1=O [Compound X-241]	57 nM	–	–	> 2000 nM	26 nM	> 2000 nM	–
O=C(NC1(C(=O)O)CCCCC1)c1cc2c(n(Cc3ccc(F)c(F)c3)c1=O)CCCCCC2 [XI-017]	6.6 nM	–	–	441 nM	11 nM	127 nM	–
CCc1c(C)cc(C(=O)Nc2nc(CC(=O)O)cs2)c(=O)n1Cc1ccc(F)c(F)c1 [XI-025]	54 nM	–	–	–	–	> 2000 nM	IC50 (CB2 receptor [5]; [9]): 209 nM; Ki (CB1 receptor [3]; [10]): 1360 nM
CCc1c(C)cc(C(=O)NC2(C(=O)O)CCCCC2)c(=O)n1Cc1ccc(F)c(F)c1 [XI-027]	54 nM	–	–	–	–	> 2000 nM	IC50 (CB2 receptor [5]; [9]): 209 nM; Ki (CB1 receptor [3]; [10]): 1360 nM
